Test results published in patent US10570140B2, “Selective inhibitors of protein arginine methyltransferase 5 (PRMT5)” (Prelude Therapeutics, Incorporated, priority 2017, dated 2020).
pIC50: −log10 of the molar value.

molecular target: PRMT5/MEP50 complex (Homo sapiens (Human), UniProt O14744); test: PRMT5 biochemical assay (3H-SAM filter plate, histone H2A substrate); conditions: not given
Method: Biochemical Assay Protocol
Compounds were solubilized and 3-fold diluted in 100% DMSO. […] Standard reactions were performed in a total volume of 50 μl in assay buffer, with histone H2A (5 μM final) as substrate. To this was added the PRMT5/MEP50 complex diluted to provide a final assay concentration of 5 nM and the compounds were allowed to preincubate for 15 to 20 minutes at room temperature. The reaction was initiated by adding S-[3H-methyl]-adenosyl-L-methionine (PerkinElmer) to final concentration of 1 μM. Following a 60 minutes incubation at 30° C., the reaction was stopped by adding 100 μL of 20% TCA. Each reaction was spotted onto filter plate (MultiScreen FB Filter Plate, Millipore), and washed 5 times with PBS buffer, Scintillation fluid was added to the filter plate and read in a scintillation counter. IC50 values were determined by fitting the data to the standard 4 parameters with Hill Slope using GraphPad Prism software.

PRMT5/MEP50 complex, sequence (O14744 whole entry): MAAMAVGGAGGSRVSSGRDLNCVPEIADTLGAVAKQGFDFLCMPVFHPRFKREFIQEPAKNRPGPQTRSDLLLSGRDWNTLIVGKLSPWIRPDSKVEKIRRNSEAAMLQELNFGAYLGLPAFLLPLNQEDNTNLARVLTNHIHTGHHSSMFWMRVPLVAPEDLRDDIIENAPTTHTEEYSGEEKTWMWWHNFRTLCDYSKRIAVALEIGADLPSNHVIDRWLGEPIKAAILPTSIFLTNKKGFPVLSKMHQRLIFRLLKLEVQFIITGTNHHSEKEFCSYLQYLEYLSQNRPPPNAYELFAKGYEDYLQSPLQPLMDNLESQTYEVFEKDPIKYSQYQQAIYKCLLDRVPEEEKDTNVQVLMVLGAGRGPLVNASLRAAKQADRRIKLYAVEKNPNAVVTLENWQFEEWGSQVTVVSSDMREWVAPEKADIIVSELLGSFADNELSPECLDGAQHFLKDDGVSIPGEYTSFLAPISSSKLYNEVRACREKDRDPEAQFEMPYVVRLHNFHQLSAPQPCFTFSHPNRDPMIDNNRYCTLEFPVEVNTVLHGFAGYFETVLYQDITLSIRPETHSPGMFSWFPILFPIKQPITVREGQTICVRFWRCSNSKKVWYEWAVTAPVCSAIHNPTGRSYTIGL
PRMT5/MEP50 complex, sequence (Q9BQA1 whole entry partner): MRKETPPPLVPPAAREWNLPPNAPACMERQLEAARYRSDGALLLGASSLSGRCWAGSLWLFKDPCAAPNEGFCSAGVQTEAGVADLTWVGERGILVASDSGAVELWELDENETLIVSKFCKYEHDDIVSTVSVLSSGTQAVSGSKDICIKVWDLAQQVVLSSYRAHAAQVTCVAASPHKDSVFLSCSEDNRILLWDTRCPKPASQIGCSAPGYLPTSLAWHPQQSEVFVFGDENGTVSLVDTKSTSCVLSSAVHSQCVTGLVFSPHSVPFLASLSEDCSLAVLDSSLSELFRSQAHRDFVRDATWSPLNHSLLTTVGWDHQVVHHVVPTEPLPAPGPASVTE

Structure (SMILES)	pIC50
CO/N=c1\[nH]cnc2c1ccn2[C@@H]1O[C@H](COc2ccc3ccc(N)nc3c2)[C@@](C)(O)[C@H]1O [Example 32, 7-((2R,3R,4S,5R)-5-(((2-aminoquinolin-7-yl)oxy)methyl)-3,4-dihydroxy-4-methyltetrahydrofuran-2-yl)-3,7-dihydro-4H-pyrrolo[2,3-d]pyrimidin-4-one O-methyloxime]	8.00

same assay, conditions: PRMT5/MEP50 5 nM, histone H2A 5 μM, SAM 1 μM; read-out: PRMT5 IC50

pIC50	Structure (SMILES)
7.80	Cc1ncnc2c1ccn2[C@@H]1O[C@H]([C@H](O)c2ccc(F)c(C(F)(F)F)c2)[C@@](C)(O)[C@H]1O [Example 61, (2R,3S,4R,5R)-2-((R)-(4-fluoro-3-(trifluorometh-yl)phenyl)(hydroxy)methyl)-3-methyl-5-(4-methyl-7H-pyrrolo[2,3-d]pyrimidin-7-yl)tetrahydrofuran-3,4-diol]
5.79	Cc1ncnc2c1ccn2[C@@H]1O[C@H](Cc2ccc(Cl)cc2CO)[C@@](C)(O)[C@H]1O [Example 64, (2R,3S,4R,5R)-2-(4-chloro-2-(hydroxymethyl)benzyl)-3-methyl-5-(4-methyl-7H-pyrrolo[2,3-d]pyrimidin-7-yl)tetrahydrofuran-3,4-diol]
5.84	COC[C@H]1O[C@@H](n2ccc3c(N)ncnc32)[C@H](O)[C@]1(C)O [Example 19, (2R,3S,4R,5R)-5-(4-amino-7H-pyrrolo[2,3-d]pyrimidin-7-yl)-2-(methoxymethyl)-3-methyltetrahydrofuran-3,4-diol]
4.94	CO/N=c1\[nH]cnc2c1ccn2[C@@H]1O[C@H](COc2ccc3ccc(NOC)nc3c2)[C@@](C)(O)[C@H]1O [Example 45, (Z)-7-((2R,3R,4S,5R)-3,4-dihydroxy-5-(((2-(methoxyamino)quinolin-7-yl)oxy)methyl)-4-methyltetrahydrofuran-2-yl)-3,7-dihydro-4H-pyrrolo[2,3-d]pyrimidin-4-one O-methyl oxime]
4.85	CNc1ncnc2c1ccn2[C@@H]1O[C@H](CSC)[C@@](C)(O)[C@H]1O [Example 40, (2S,3S,4R,5R)-3-methyl-5-(4-(methylamino)-7H-pyrrolo[2,3-d]pyrimidin-7-yl)-2-((methylthio)methyl)tetrahydrofuran-3,4-diol]
8.80	C#C[C@@]1(O)[C@@H](COc2ccc3ccc(N)nc3c2)O[C@@H](n2ccc3c(N)ncnc32)[C@@H]1O [Example 3, (2R,3S,4R,5R)-5-(4-amino-7H-pyrrolo[2,3-d]pyrimidin-7-yl)-2-(((2-aminoquinolin-7-yl)oxy)methyl)-3-ethynyltetrahydrofuran-3,4-diol]
4.84	C[C@@]1(O)[C@@H](COc2ccccc2)O[C@@H](n2ccc3c(N)ncnc32)[C@@H]1O [Example 20, (2R,3S,4R,5R)-5-(4-amino-7H-pyrrolo[2,3-d]pyrimidin-7-yl)-3-methyl-2-(phenoxymethyl)tetrahydrofuran-3,4-diol]
6.90	C[C@@]1(O)[C@@H](COc2cccc(CN)c2)O[C@@H](n2ccc3c(N)ncnc32)[C@@H]1O [Example 22, (2R,3S,4R,5R)-5-(4-amino-7H-pyrrolo[2,3-d]pyrimidin-7-yl)-2-((3-(aminomethyl)phenoxy)methyl)-3-methyltetrahydrofuran-3,4-diol]
8.24	C[C@@]1(O)[C@@H](COc2ccc3cccnc3c2)O[C@@H](n2ccc3c(N)ncnc32)[C@@H]1O [Example 53, (2R,3S,4R,5R)-5-(4-amino-7H-pyrrolo[2,3-d]pyrimidin-7-yl)-3-methyl-2-((quinolin-7-yloxy)methyl)tetrahydrofuran-3,4-diol]
5.11	C[C@@]1(O)[C@@H](COc2cccc(NC(N)=O)c2)O[C@@H](n2ccc3c(N)ncnc32)[C@@H]1O [Example 21, 1-(3-(((2R,3S,4R,5R)-5-(4-amino-7H-pyrrolo[2,3-d]pyrimidin-7-yl)-3,4-dihydroxy-3-methyltetrahydrofuran-2-yl)methoxy)phenyl)urea]
6.08	C[C@@]1(O)[C@@H](C(=O)Nc2cccc(CN)c2)O[C@@H](n2ccc3c(N)ncnc32)[C@@H]1O [Example 43, (2S,3S,4R,5R)-5-(4-amino-7H-pyrrolo[2,3-d]pyrimidin-7-yl)-N-(3-(aminomethyl)phenyl)-3,4-dihydroxy-3-methyltetrahydrofuran-2-carboxamide]
6.43	Cc1ncnc2c1ccn2[C@@H]1O[C@H]([C@H](O)c2ccc(OC(F)(F)F)cc2)[C@@](C)(O)[C@H]1O [Example 60, (2R,3S,4R,5R)-2-((R)-hydroxy(4-(trifluoromethoxy)phenyl)methyl)-3-methyl-5-(4-methyl-7H-pyrrolo[2,3-d]pyrimidin-7-yl)tetrahydrofuran-3,4-diol]
5.04	C[C@@]1(O)[C@@H](C(=O)Nc2cccc(CN)c2)O[C@@H](n2ccc3c(Cl)ncnc32)[C@@H]1O [Example 42, (2S,3S,4R,5R)-N-(3-(aminomethyl)phenyl)-5-(4-chloro-7H-pyrrolo[2,3-d]pyrimidin-7-yl)-3,4-dihydroxy-3-methyltetrahydrofuran-2-carboxamide]
6.37	CO/N=c1/nc[nH]c2c1ccn2[C@@H]1O[C@H]([C@H](O)c2ccc(Cl)c(Cl)c2)[C@@](C)(O)[C@H]1O [Example 37, 7-((2R,3R,4S,5R)-5-((R)-(3,4-dichlorophenyl)(hydroxy)methyl)-3,4-dihydroxy-4-methyltetrahydrofuran-2-yl)-1,7-dihydro-4H-pyrrolo[2,3-d]pyrimidin-4-one O-methyl oxime]
6.64	C[C@@]1(O)[C@@H](Cc2ccc3c(c2)OCO3)O[C@@H](n2ccc3c(N)ncnc32)[C@@H]1O [Example 49, (2R,3S,4R,5R)-5-(4-amino-7H-pyrrolo[2,3-d]pyrimidin-7-yl)-2-(benzo[d][1,3]dioxol-5-ylmethyl)-3-methyltetrahydrofuran-3,4-diol]
8.06	C=C[C@@]1(O)[C@@H](COc2ccc3ccc(N)nc3c2)O[C@@H](n2ccc3c(N)ncnc32)[C@@H]1O [Example 4, (2R,3S,4R,5R)-5-(4-amino-7H-pyrrolo[2,3-d]pyrimidin-7-yl)-2-(((2-aminoquinolin-7-yl)oxy)methyl)-3-vinyltetrahydrofuran-3,4-diol]
6.39	C[C@@]1(O)[C@@H](Cc2ccc(Cl)c(Cl)c2)O[C@@H](n2ccc3cncnc32)[C@@H]1O [Example 51, (2R,3S,4R,5R)-2-(3,4-dichlorobenzyl)-3-methyl-5-(7H-pyrrolo[2,3-d]pyrimidin-7-yl)tetrahydrofuran-3,4-diol]
6.70	Cc1ncnc2c1ccn2[C@@H]1O[C@H](COc2ccc3cccnc3c2)[C@@](C)(O)[C@H]1O [Example 54, (2R,3S,4R,5R)-3-methyl-5-(4-methyl-7H-pyrrolo[2,3-d]pyrimidin-7-yl)-2-((quinolin-7-yloxy)methyl)tetrahydrofuran-3,4-diol]
5.46	CO/N=c1\[nH]cnc2c1ccn2[C@@H]1O[C@H]([C@H](O)c2ccc(Cl)cc2)[C@@](C)(O)[C@H]1O [Example 44, (Z)-7-((2R,3R,4S,5R)-5-((R)-(4-chlorophenyl)(hydroxy)methyl)-3,4-dihydroxy-4-methyltetrahydrofuran-2-yl)-3,7-dihydro-4H-pyrrolo[2,3-d]pyrimidin-4-one O-methyl oxime]
6.38	C[C@@]1(O)[C@@H](Cc2ccc(Cl)cc2CO)O[C@@H](n2ccc3c(N)ncnc32)[C@@H]1O [Example 65, (2R,3S,4R,5R)-5-(4-amino-7H-pyrrolo[2,3-d]pyrimidin-7-yl)-2-(4-chloro-2-(hydroxymethyl)benzyl)-3-methyltetrahydrofuran-3,4-diol]
8.96	Cc1ncnc2c1ccn2[C@@H]1O[C@H](COc2ccc3ccc(N)nc3c2)[C@@](C)(O)[C@H]1O [Example 10, (2R,3S,4R,5R)-2-(((2-aminoquinolin-7-yl)oxy)methyl)-3-methyl-5-(4-methyl-7H-pyrrolo[2,3-d]pyrimidin-7-yl)tetrahydrofuran-3,4-diol]
6.40	Cc1ncnc2c1ccn2[C@@H]1O[C@H]([C@H](O)c2ccc(C(C)C)cc2)[C@@](C)(O)[C@H]1O [Example 59, (2R,3S,4R,5R)-2-((R)-hydroxy(4-isopropylphenyl)methyl)-3-methyl-5-(4-methyl-7H-pyrrolo[2,3-d]pyrimidin-7-yl)tetrahydrofuran-3,4-diol]
9.05	Cc1cnc2cc(OC[C@H]3O[C@@H](n4ccc5c(N)ncnc54)[C@H](O)[C@]3(C)O)ccn12 [Example 68, (2R,3S,4R,5R)-5-(4-amino-7H-pyrrolo[2,3-d]pyrimidin-7-yl)-3-methyl-2-(((3-methylimidazo[1,2-a]pyridin-7-yl)oxy)methyl)tetrahydrofuran-3,4-diol]
3.70	C[C@@]1(O)[C@@H](COc2cccc(NC(N)=O)c2)O[C@@H](n2ccc3c(Cl)ncnc32)[C@@H]1O [Example 41, 1-(3-(((2R,3S,4R,5R)-5-(4-chloro-7H-pyrrolo[2,3-d]pyrimidin-7-yl)-3,4-dihydroxy-3-methyltetrahydrofuran-2-yl)methoxy)phenyl)urea]

Structure (SMILES)	pIC50
C[C@@]1(O)[C@@H]([C@H](O)c2ccc(Cl)cc2)O[C@@H](n2ccc3/c(=N/O)[nH]cnc32)[C@@H]1O [Example 46, (Z)-7-((2R,3R,4S,5R)-5-((R)-(4-chlorophenyl)(hydroxy)methyl)-3,4-dihydroxy-4-methyltetrahydrofuran-2-yl)-3,7-dihydro-4H-pyrrolo[2,3-d]pyrimidin-4-one oxime]	7.04

system: sDMA; test: Western blot for symmetric di-methyl arginine (sDMA) IC50 in Granta cells; assay type: cell-based; conditions: Homo sapiens, 72 h; Granta-519 cell line, 3 days

pIC50	Structure (SMILES)
7.35	C#C[C@@]1(O)[C@@H](COc2ccc3ccc(N)nc3c2)O[C@@H](n2ccc3c(N)ncnc32)[C@@H]1O [Example 3, (2R,3S,4R,5R)-5-(4-amino-7H-pyrrolo[2,3-d]pyrimidin-7-yl)-2-(((2-aminoquinolin-7-yl)oxy)methyl)-3-ethynyltetrahydrofuran-3,4-diol]
4.22	C[C@@]1(O)[C@@H](COc2cccc(CN)c2)O[C@@H](n2ccc3c(N)ncnc32)[C@@H]1O [Example 22, (2R,3S,4R,5R)-5-(4-amino-7H-pyrrolo[2,3-d]pyrimidin-7-yl)-2-((3-(aminomethyl)phenoxy)methyl)-3-methyltetrahydrofuran-3,4-diol]
